Publication PMC8208785, “Therapeutic efficacy of novel memantine nitrate MN‐08 in animal models of Alzheimer’s disease” (Aging Cell, 2021)

Key:
[1] = system: primary hippocampal neurons; assay: intracellular Ca2+ by Fluo-4 confocal microscopy in primary hippocampal neurons; assay type: cell-based, rat; conditions: glutamate 100 µM
Method: Rat hippocampal neurons were obtained from 18-day-old Sprague-Dawley rat embryos as previously described with modifications (Subramaniam et al., 2005). The hippocampi were obtained and dissected on ice. Then, the hippocampi were digested with 0.25 % trypsin at 37°C for 15 min. The single neurons were mechanically dissociated by using a Pasteur pipette. The neurons were plated at a density of 2×10^5 cells/mL on 35-mm culture dishes, which were pre-coated with poly-L-lysine (10 μg/mL), in neurobasal eagle’s medium containing 10 % fetal bovine serum, 0.5 mM glutamine, 100 units/mL of penicillin, 100 μg/mL of streptomycin. […]
A confocal laser scanning microscope was used to evaluate relative changes in intracellular calcium concentrations [Ca^2+]i by monitoring Fluo-4 fluorescence after intracellular cleavage of superfused Fluo-4 acetoxymethylester (1 μM, with excitation at 488 nm and emission at 510 nm) (Bkaily, Al-Khoury, Simon, & Jacques, 2017). […] The fluorescence images were obtained by Leica TCS SPE Confocal Microscope and analyzed using the LAS AF software (Leica Microsystems Co., Wetzlar and Mannheim, Germany). The data were obtained by evaluating the fluorescence (F) from selected areas within a cell, following subtraction of background fluorescence, and division by the fluorescence intensity before drug application (F0), expressed as F/F0. […]

APP/PS1 mice = assay: Aβ plaque staining and Aβ ELISA in brains of APP/PS1 mice; assay type: in vivo; conditions: for amyloid plaque burdens (Aβ1‐42, Aβ1‐16 staining): prevention study, hippocampus and cortex
Method: APP/PS1 transgenic mice were purchased from Jackson Laboratory and reproduced in the Shenzhen Center for Disease Control and Prevention (Shenzhen, China). Two‐month‐old APP/PS1 mice were divided into four groups: (1) APP/PS1 + Vehicle group; (2) APP/PS1 + MN‐08 (6 mg/kg) group; (3) APP/PS1 + Memantine (Mem, 5 mg/kg) group; (4) APP/PS1 + Donepezil (Done, 1.3 mg/kg, once daily) group; (5) Two‐month‐old C57BL/6J mice as a control group. The APP/PS1 mice were administered drugs twice a day (Done, once daily) by gastric gavage from ages 2 to 8 months for 6 months successively. Control and vehicle groups received equal volumes of saline.
To evaluate the concentration of soluble and insoluble Aβ in AD mice, the hippocampus and cortex were homogenized in the lysate, which was then centrifuged at 12000 g for 30 min at 4°C. Supernatant samples were collected as soluble Aβ. Sediment of the cortex and hippocampus was resuspended with formic acid, incubated on ice for 60 min and then centrifuged at 12,000 g for 30 min at 4°C. The supernatant and Tris/NaH2PO4 buffer were mixed as insoluble Aβ. The concentration of Aβ was analyzed by ELISA kit of human amyloid β (R&D Systems, Minneapolis, MN, USA) following the manufacturer’s instructions.
Immunohistochemistry and immunofluorescence staining were carried out as previously described (Zhang et al., 2017). Coronal brain sections were incubated with […] sodium citrate (pH 6.0) and heated for 15 min. After cooling to room temperature, the sections were immersed in 3 % H2O2 for 10 min followed by blocking solution (10 % fetal bovine serum, 1 % bovine serum albumin and 0.1 % Triton X-100) for 1 h. Sections were then incubated with the following appropriate primary antibodies overnight at 4°C: anti-Aβ1-42 antibody (#ab10148, 1:1000, Abcam), anti-Aβ1-16 antibody (#803014, 1:1000, Abcam) and anti-NeuN antibody (#ab177487, 1:400, Abcam). After rinsing 3 times, the sections of immunohistochemistry staining were incubated with biotin-conjugated universal secondary antibody (Gene Tech, Shanghai, China). For immunofluorescence staining, the sections were incubated with appropriate secondary antibodies for 2 h at room temperature. Image J software was used to analyze the fluorescence intensity and cell counting from six slices at similar coronal positions of each animal; this was performed by a viewer blinded to the experimental group.

[2] = toxicology study in beagle dogs (NOAEL); conditions: dog, in vivo
Method: Forty healthy adult beagle dogs were randomly divided into 4 groups of 5 males (weighing 6.43-8.40 kg) and 5 females (weighing 5.39-6.77 kg) each: (1) Placebo group; (2) MN-08 (4 mg/kg) group; (2) MN-08 (12 mg/kg) group; (3) MN-08 (24 mg/kg) group. MN-08 tablets were administered to beagle dogs by gastric gavage for 4 weeks. The no observed adverse effect level (NOAEL) was examined according to previously described (Brownawell, Carmines, & Montesano, 2011).

Compound	intracellular Ca2+ influx caused by glutamate ([1]; MN‐08 30 µM)	amyloid plaque burdens (Aβ1‐42, Aβ1‐16 staining) (APP/PS1 mice; MN‐08 6 mg/kg)	soluble and insoluble Aβ1–42 (ELISA) (APP/PS1 mice; MN‐08 6 mg/kg, hippocampal and cortical regions)	levels of Aβ1–40 (ELISA) (APP/PS1 mice; MN‐08 6 mg/kg, hippocampi and cortices)	NOAEL at 4 weeks ([2]; both sexes, beagle, po)	intracellular Ca2+ influx caused by glutamate ([1]; memantine 10 µM)	amyloid plaque burdens (Aβ1‐42, Aβ1‐16 staining) (APP/PS1 mice; memantine 5 mg/kg)	NOAEL ([2]; beagle dogs, memantine, regimen not stated, read-out: no observed adverse effect level (NOAEL))
CCC12CC3CC(N)(C1)CC(CO[N+](=O)[O-])(C3)C2 (centres unmarked) [MN‐08]	inhibited	obviously attenuated	significantly decreased	no significant difference	24 mg/kg	–	–	–
CC12CC3CC(C)(C1)CC(N)(C3)C2 [memantine, 1‐amino‐3,5‐dimethyladamantane]	–	–	–	–	–	inhibited	obviously attenuated	9 mg/kg
